These results are taken from article PMC6125496 (Antimicrobial Agents and Chemotherapy, 2018).

Converted amounts (≈) assume the structure as drawn. Like-named read-outs stand apart in the source and are kept apart here. Non-standard residues stand in square brackets, D forms with d. Residues, ends and D or L forms follow the SMILES beside them. Dab(3S-OH) = NC[C@H](O)[C@H](N)C(=O)O; Phe(2-F) = N[C@@H](Cc1ccccc1F)C(=O)O; ΔZArg = N=C(N)NCC/C=C(\N)C(=O)O; dOrn = NCCC[C@@H](N)C(=O)O; Dab = NCC[C@H](N)C(=O)O

In data set [1] the test system is Enterobacter cloacae 10.72. Particulars: Ambler class C carbapenem resistant; AmpC overexpressed + TEM-1 + OXA-1. An excerpt:
(§1) Reference strains are from the German Collection of Microorganisms and Cell Cultures (DSMZ), the American Type Culture Collection (ATCC), the National Collection of Type Cultures (NCTC), and the Medical and Molecular Microbiology, Faculty of Science and Medicine, University of Fribourg, Switzerland.

Data set [2] concerns Klebsiella pneumoniae DUB. Conditions: Ambler class D carbapenemase; OXA-48 + CTX-M15 + TEM-1 + SHV-1 + OXA-1 + CMY-2.
Description: as §1

The test system of data set [3] is Polymyxin B-resistant E. coli (2).
Description: as §1

The next data set has as its system CHO-K1 cells. Particulars: 512 μM, 24 h; S9 medium negative control 0.7%. As for the experimental part:
The test was conducted by Eurofins Panlabs. […] At the end of the incubation period the cells were fixed, and their DNA was stained with Hoechst. The visualization and scoring of the cells was done using an automated fluorescence microscope coupled with proprietary automated image analysis software ([46]). The percent micronucleated cells was calculated.

Data set [4] can be described thus: in vitro. Conditions: cryopreserved pooled hepatocytes. Here is the method: The hepatocyte metabolic stability assays were performed by Cyprotex Discovery Ltd. (Macclesfield, UK). This assay utilizes cryopreserved pooled hepatocytes from different species (mouse, rat, dog, monkey, and human), stored in liquid nitrogen prior to use. […] The final incubation volume was 500 μl. Two control compounds were included with each species alongside an appropriate vehicle control. […] The termination plates were centrifuged at 2,500 rpm at 4°C for 30 min to precipitate the protein. Following protein precipitation, the test compound sample supernatants were diluted with analytical-grade water, whereas the control compounds were diluted with an internal standard (metoprolol) in water. The test compound samples were analyzed by liquid chromatography-tandem mass spectrometry (LC-MS/MS).

Data set [5] can be described thus: in vitro. Particulars: plasma, pH 7.4. Here is the method:
The final incubation volume was 200 μl. All incubations were performed singularly for each compound at each time point. A vehicle control incubation was included using either water or DMSO, along with a control compound known to be metabolized specifically by each species. Each compound was incubated for 0, 15, 30, 60, and 120 min at 37°C. The reactions were stopped by the addition of 40% TCA in water containing an internal standard (NOSO-95216, 1 μM final concentration) for the test compounds, or methanol for the control compounds, at the appropriate time points. The vehicle control incubation was incubated for 120 min only. The termination plates were centrifuged at 3,000 rpm for 45 min at 4°C to precipitate the protein. Following protein precipitation, the test compound sample supernatants were diluted with analytical-grade water, whereas the control compounds were diluted with an internal standard (metoprolol) in water. The test compound samples were analyzed by LC-MS/MS.

A short description of a further data set: in vivo. Particulars: female, plasma, iv. As for the experimental part: Pharmacokinetic analyses were performed by Pharmacelsus (Saarbrücken, Germany). […] Blood (100 μl) was collected from three animals per time point (5, 10, 20, 30, 60, and 120 min postdose for mice and 5, 15, 30, 60, 180, and 420 min postdose for rats) in tubes containing K3-EDTA as an anticoagulant. Samples were stored on ice and centrifuged at 6,000 rpm for 10 min at 4°C. A sample volume of 50 μl was mixed with 5 μl of solvent (acetonitrile-H2O-DMSO, [5/4/1, vol/vol/vol] plus 1% formic acid). A volume of 10 μl of solvent containing the internal standard and 50 μl of precipitant (10% TCA) were added to 55 μl of sample. The mixture was vortexed and centrifuged at 6,000 × g (room temperature) for 10 min. The protein-free supernatant was analyzed by LC-MS using an Ultimate 3000RS ultrahigh-performance liquid chromatograph (U-HPLC) coupled with an Orbitrap Q Exactive mass spectrometer.
Analytes were separated on a Accurore phenyl-hexyl analytical column (2.1 by 50 mm, 2.6 μm; Thermo, Germany) using a linear gradient of mobile phase A (acetonitrile-0.2% heptafluorobutyric acid)-mobile phase B (water-0.2% heptafluorobutyric acid), starting from 5% mobile phase A to 97% in 2.2 min, and a flow rate of […]. Peaks were analyzed by mass spectrometry (ESI ionization in MRM mode) using Xcalibur 4.0 software. The products analyzed, [M + 2H]^2+ and [M + 3H]^3+, were 539.8 and 360.2 Da, respectively. PK parameters were calculated using a noncompartmental analysis model and Kinetica 5.0 software (Thermo Scientific, Waltham, MA). The mean plasma concentrations from all three mice at each time point were used in the calculation.

Data set [6] is described as follows: in vitro. Particulars: plasma (EDTA anticoagulant), pH 7.4. As for the experimental part: The […] were performed by Cyprotex Discovery Ltd. (Macclesfield, UK). […] The experiment was performed using equilibrium dialysis (RED device) with the two compartments separated by a semipermeable membrane. Buffer (pH 7.4) was added to one side of the membrane and the plasma solution to the other. After equilibration (4 h), samples were taken from both sides of the membrane. Calibration standards were prepared in plasma and buffer. All incubations were performed in triplicate. A control compound was included in each experiment. Incubation of the control compound samples was terminated with acetonitrile containing an internal standard (metoprolol). Incubation of the test compound samples was terminated with 40% TCA in water containing in internal standard (NOSO-95216; 1 μM final concentration). All samples were centrifuged and further diluted with water prior to analysis. The solutions for each batch of control compounds were combined into two groups (protein free and protein containing) and cassette analyzed by LC-MS/MS using two sets of calibration standards for protein-free (seven points) and protein-containing solutions (seven points).

In another data set the test system is E. coli EN122. Particulars: ESBL, clinical isolate.
The target in another data set is hERG (Homo sapiens, UniProt Q12809). As to the kind of experiment: in vitro.
Data set [7] in a line: in vitro. Particulars: human, cryopreserved pooled hepatocytes.

hERG, sequence (Q12809 whole entry): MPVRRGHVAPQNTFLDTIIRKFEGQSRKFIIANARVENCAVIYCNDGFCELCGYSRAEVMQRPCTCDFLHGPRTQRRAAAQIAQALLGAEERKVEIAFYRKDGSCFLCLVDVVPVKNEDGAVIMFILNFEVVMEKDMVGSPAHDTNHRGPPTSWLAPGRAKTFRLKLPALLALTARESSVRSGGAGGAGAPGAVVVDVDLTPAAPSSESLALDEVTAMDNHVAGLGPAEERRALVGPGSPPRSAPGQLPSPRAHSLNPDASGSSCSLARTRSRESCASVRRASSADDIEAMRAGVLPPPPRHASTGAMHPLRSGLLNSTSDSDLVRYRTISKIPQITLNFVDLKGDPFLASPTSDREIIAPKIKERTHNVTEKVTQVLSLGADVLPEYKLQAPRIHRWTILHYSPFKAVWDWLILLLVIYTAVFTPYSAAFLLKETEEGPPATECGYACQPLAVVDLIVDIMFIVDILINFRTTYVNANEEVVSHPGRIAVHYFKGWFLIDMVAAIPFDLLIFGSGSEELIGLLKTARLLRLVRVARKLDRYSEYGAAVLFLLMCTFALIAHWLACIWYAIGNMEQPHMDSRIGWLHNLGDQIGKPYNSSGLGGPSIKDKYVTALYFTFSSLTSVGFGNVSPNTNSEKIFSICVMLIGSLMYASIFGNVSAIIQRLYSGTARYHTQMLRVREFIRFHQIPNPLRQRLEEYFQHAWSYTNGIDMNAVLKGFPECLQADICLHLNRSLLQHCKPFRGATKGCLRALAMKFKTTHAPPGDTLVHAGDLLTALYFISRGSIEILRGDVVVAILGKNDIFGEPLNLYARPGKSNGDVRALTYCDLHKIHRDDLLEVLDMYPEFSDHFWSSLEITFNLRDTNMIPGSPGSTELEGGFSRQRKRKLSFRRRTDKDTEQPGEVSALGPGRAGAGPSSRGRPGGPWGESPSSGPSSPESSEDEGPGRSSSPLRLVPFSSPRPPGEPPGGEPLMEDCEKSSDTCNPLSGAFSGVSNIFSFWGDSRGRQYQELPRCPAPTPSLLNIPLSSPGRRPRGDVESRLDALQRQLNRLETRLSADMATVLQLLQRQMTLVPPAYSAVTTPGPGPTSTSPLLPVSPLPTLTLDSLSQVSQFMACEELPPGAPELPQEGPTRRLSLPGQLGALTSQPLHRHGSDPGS
Description for E. coli EN122: (§2) MIC values were determined using Clinical and Laboratory Standards Institute (CLSI) broth microdilution methodology, colony direct suspension, as described in CLSI document M07-A10 ([42]).
Description for E. coli UTI89: as §2
Description for hERG: Inhibition of the human ether-a-go-go-related gene (hERG) cardiac potassium ion channel was determined by Eurofins Panlabs (Eurofins Panlabs, Inc., St. Charles, MO) in CHO-K1 (Chinese hamster ovary) cells stably transfected with human hERG cDNA using QPatch automated whole-cell patch clamp electrophysiology as described in reference [45]. […] In this method, the extracellular solution (control) is applied first and the cell is stabilized in the solution for 5 min. Then the test compound is applied from low to high concentrations sequentially on the same cell, with 5 min for each test concentration, at room temperature.

One may read the MIC as the smallest concentration in the dilution series that meets the test's criterion for growth inhibition. In general, half-life refers to how long it takes for the measured level to halve. A low value points to rapid decline. A word on the AUC(0-t): it is exposure summed from dosing to a finite time, without extrapolation to infinity. Lower therefore signals less exposure. One may read the Cmax as the peak of the concentration-time curve. Broadly, the Vd is the apparent volume that relates the amount in the body to the concentration in plasma or blood. Read a low Vd as little distribution into tissue. Usually clearance stands for a measure of how efficiently the substance is removed, as volume per time. Low values mean a low capacity for elimination, high ones a high capacity for elimination. The fraction unbound is the share of the substance not bound to proteins or other matrix. By inhibition is commonly meant the change of the read-out against control, counted positive when it falls. As for `N=C(N)NCC/C=C(\NC(=O)[C@H](CCCCN)NC(=O)[C@H](Cc1ccccc1F)NC(=O)[C@@H]1CCCN1C(=O)[C@@H](CCCN)NC(=O)CNC(=O)[C@H](CCN)NC(=O)[C@@H](NC(=O)[C@@H](N)CCCCN)[C@@H](O)CN)C(=O)O` [NOSO-502] (H-K[Dab(3S-OH)][Dab]G[dOrn]P[Phe(2-F)]K[ΔZArg]-OH), the MIC stood at 1 µg/mL in data set [1], 0.5 µg/mL in [2], 4 µg/mL (≈ 3.71 µM) against E. coli EN122 and 4 µg/mL (≈ 3.71 µM) in the data set with E. coli UTI89. The “MIC range” value in data set [3] (Polymyxin B-resistant (2)) was in the range of 4 to 8 µg/mL. In the data set on CHO-K1 cells, the cells with micronuclei is listed as 0.61%. The half-life at 1 μM in the data set “in vitro [4]” (dog) was determined as 483 min; in “in vitro [4]” (monkey), 698 min; in “in vitro [4]” (mouse), 192 min; in the data set “in vitro [4]” (rat) it was 194 min; in “in vitro [7]” it was 329 min. Also, the half-life at 10 μM came out at 158 min in “in vitro [5]” (dog); 79 min in the data set “in vitro [5]” (human); 96 min in the data set “in vitro [5]” (monkey); 54 min in “in vitro [5]” (mouse); 36 min in “in vitro [5]” (rat). Also, the AUC(0-t) in “in vivo” (CD-1, mouse, 30 mg/kg) was found to be 8880 ng·h/mL; in “in vivo” (Sprague-Dawley, rat, 15 mg/kg) it was 7990 ng·h/mL. For the same molecule, the Cmax worked out at 23500 ng/mL in the data set “in vivo” (CD-1, mouse, 30 mg/kg) and 40700 ng/mL in “in vivo” (Sprague-Dawley, rat, 15 mg/kg). In addition, the Vd was found to be 0.66 L/kg in the data set “in vivo” (CD-1, mouse, 30 mg/kg) and 0.94 L/kg in “in vivo” (Sprague-Dawley, rat, 15 mg/kg). The clearance in “in vivo” (CD-1, mouse, 30 mg/kg) was 18.8 mL/min/kg; in the data set “in vivo” (Sprague-Dawley, rat, 15 mg/kg), 32 mL/min/kg. Also, the half-life in the data set “in vivo” (CD-1, mouse, 30 mg/kg) was determined as 25 min; in the data set “in vivo” (Sprague-Dawley, rat, 15 mg/kg), 90 min. In addition, the fraction unbound at 4 h, 2 μM was found to be 0.176 in the data set “in vitro [6]” (dog), 0.187 in the data set “in vitro [6]” (human), 0.198 in “in vitro [6]” (mouse) and 0.205 in the data set “in vitro [6]” (rat). Moreover, the inhibition at 5 min, 256 µM against hERG was 2.6%. For the same molecule, the inhibition at 5 min, 512 µM on hERG turned out to be 1.9%.
As to polymyxin B [PMB], the MIC in data set [1] and in [2] was 0.5 µg/mL throughout. The “MIC range” value in data set [3] (2 polymyxin B-resistant isolates) is 4 to 32 µg/mL.
